Data published in ChEMBL document CHEMBL1201862, “PubChem BioAssay data set” (2004).
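In this assay, cells in 96-well plates receive the compound at five concentrations for 48 hours. Endpoints are linearly interpolated between the surrounding concentrations. GI50 is the concentration that inhibits growth by half.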 Active and inactive are the calls of the source. Cut-off read from the data, not from the text of the source: active = GI50 up to about 1.1 µM and inactive = higher.

Experiments:
Experiment in all cases: DTP human tumour cell line panel, 48 h
HL-60 = test system: HL-60
A549 = test system: A549
SW-620 = test system: SW-620
MOLT-4 = test system: MOLT-4
OVCAR-8 = test system: OVCAR-8
SN12C = test system: SN12C
SF-539 = test system: SF-539
NCI-H226 = test system: NCI-H226
NCI-H460 = test system: NCI-H460
RXF 393 = test system: RXF 393
A498 = test system: A498
SK-MEL-5 = test system: SK-MEL-5
IGROV-1 = test system: IGROV-1
OVCAR-5 = test system: OVCAR-5
U-251 = test system: U-251

Measured: GI50

Nc1ncnc2c1ncn2CC(O)CO (stereo not drawn)
inactive: HL-60 > 100 µM | A549 > 100 µM | SW-620 > 100 µM | MOLT-4 > 100 µM | OVCAR-8 > 100 µM | SN12C > 100 µM | SF-539 > 100 µM | NCI-H226 > 100 µM | NCI-H460 > 100 µM | RXF 393 > 100 µM | A498 > 100 µM | SK-MEL-5 > 100 µM | IGROV-1 > 100 µM

c1cc2c(cnc3cscc32)s1
inactive: HL-60 > 100 µM | A549 > 100 µM | SW-620 > 100 µM | MOLT-4 > 100 µM | OVCAR-8 > 100 µM | SN12C > 100 µM | SF-539 > 100 µM | NCI-H226 > 100 µM | NCI-H460 > 100 µM | RXF 393 > 100 µM | OVCAR-5 > 100 µM | U-251 > 100 µM | A498 > 100 µM | SK-MEL-5 > 100 µM

COc1cc(C(C)c2cc3c(cc2OCCCCOc2cc4c(cc2C(C)c2cc(OC)c(OC)c(OC)c2)OCO4)OCO3)cc(OC)c1OC (stereo not drawn)
inactive: HL-60 37.8 µM | A549 48.4 µM | SW-620 26.9 µM | MOLT-4 41.4 µM | OVCAR-8 34.8 µM | SN12C 29.6 µM | SF-539 23.7 µM | NCI-H226 31.5 µM | NCI-H460 45.3 µM | RXF 393 17.6 µM | OVCAR-5 > 100 µM | U-251 29.7 µM | SK-MEL-5 29.1 µM | IGROV-1 49.9 µM

C1=CC=C2NCCOCC/N=C3/C=CC=CC=C3NCCOCC/N=C\2C=C1
inactive: HL-60 22.4 µM | A549 63.7 µM | SW-620 32.4 µM | MOLT-4 44.9 µM | OVCAR-8 57.4 µM | SN12C 77.6 µM | NCI-H226 > 100 µM | NCI-H460 30.4 µM | OVCAR-5 > 100 µM | U-251 > 100 µM | A498 > 100 µM | SK-MEL-5 48.6 µM | IGROV-1 > 100 µM

CN(C)C(=C1C(Br)=C(Br)C(Br)=C1Br)N(C)C
inactive: HL-60 46.3 µM | A549 > 100 µM | SW-620 83.8 µM | MOLT-4 > 100 µM | OVCAR-8 > 100 µM | SN12C > 100 µM | SF-539 > 100 µM | NCI-H460 > 100 µM | RXF 393 > 100 µM | OVCAR-5 > 100 µM | U-251 > 100 µM | SK-MEL-5 > 100 µM | IGROV-1 > 100 µM

CCOC(=O)c1cnc2oc(-c3ccc(OC)cc3)nn2c1=O
inactive: A549 > 100 µM | SW-620 > 100 µM | MOLT-4 > 100 µM | OVCAR-8 > 100 µM | SN12C > 100 µM | SF-539 > 100 µM | NCI-H226 > 100 µM | RXF 393 93.1 µM | OVCAR-5 > 100 µM | U-251 > 100 µM | SK-MEL-5 > 100 µM | IGROV-1 > 100 µM

CC1=NN(C(=O)Cc2ccccc2)C(=O)/C1=C\C=C\c1ccccc1
inactive: HL-60 > 100 µM | A549 > 100 µM | SW-620 > 100 µM | MOLT-4 > 100 µM | OVCAR-8 > 100 µM | SN12C > 100 µM | SF-539 > 100 µM | NCI-H226 > 100 µM | OVCAR-5 > 100 µM | SK-MEL-5 > 100 µM

C/C(=N\N(C)C)C(CN1CCCCC1)C(c1ccccc1)c1c(O)c2ccccc2oc1=O (stereo not drawn)
inactive: HL-60 > 100 µM | A549 > 100 µM | SW-620 > 100 µM | MOLT-4 > 100 µM | OVCAR-8 > 100 µM | SN12C > 100 µM | SF-539 > 100 µM | NCI-H226 37.5 µM | NCI-H460 > 100 µM | RXF 393 > 100 µM | OVCAR-5 > 100 µM | U-251 > 100 µM | A498 > 100 µM | SK-MEL-5 > 100 µM | IGROV-1 > 100 µM

S=c1nc2c(c[nH]1)C1c3ccccc3C2c2ccccc21
inactive: HL-60 28.3 µM | A549 68.9 µM | SW-620 > 100 µM | MOLT-4 31.8 µM | OVCAR-8 > 100 µM | SN12C > 100 µM | SF-539 > 100 µM | NCI-H226 > 100 µM | NCI-H460 > 100 µM | RXF 393 35.2 µM | OVCAR-5 > 100 µM | U-251 91.2 µM | SK-MEL-5 73.8 µM | IGROV-1 69.2 µM

CC1=C(C(=O)Nc2ccc([N+](=O)[O-])cc2)C(c2cccc([N+](=O)[O-])c2)C(C(=O)Nc2ccc([N+](=O)[O-])cc2)=C(C)N1
inactive: HL-60 16.4 µM | A549 29.7 µM | SW-620 31.9 µM | MOLT-4 5.35 µM | OVCAR-8 17.8 µM | SN12C 30.5 µM | SF-539 60.3 µM | NCI-H226 58.3 µM | NCI-H460 27.7 µM | RXF 393 16.2 µM | OVCAR-5 > 100 µM | U-251 9.71 µM | A498 32.8 µM | IGROV-1 21.2 µM

COc1ccc(S(=O)(=O)N/N=C/c2cc(I)cc([N+](=O)[O-])c2O)cc1OC
inactive: HL-60 23 µM | A549 > 100 µM | SW-620 47.8 µM | MOLT-4 24.8 µM | OVCAR-8 53.2 µM | SN12C 32.8 µM | NCI-H226 22.7 µM | NCI-H460 55 µM | OVCAR-5 > 100 µM | U-251 32.7 µM | A498 54.2 µM | SK-MEL-5 19.8 µM | IGROV-1 37.7 µM

COC(=O)C1=C(C)N(NC(N)=O)C2(N)N(NC(N)=O)C(C)=C(C(=O)OC)C12C#N (stereo not drawn)
inactive: HL-60 > 100 µM | A549 > 100 µM | SW-620 > 100 µM | MOLT-4 > 100 µM | OVCAR-8 > 100 µM | SN12C > 100 µM | SF-539 > 100 µM | NCI-H226 > 100 µM | NCI-H460 > 100 µM | OVCAR-5 > 100 µM | U-251 > 100 µM | A498 > 100 µM | IGROV-1 > 100 µM

NC(=O)N/N=C(\C(=O)C(=O)Nc1ccc(Cl)c(C(F)(F)F)c1)c1nc2ccc(C(=O)c3ccccc3)cc2nc1O
inactive: A549 > 100 µM | SW-620 > 100 µM | MOLT-4 35.3 µM | OVCAR-8 88.9 µM | SN12C 99.5 µM | SF-539 > 100 µM | NCI-H226 47.3 µM | NCI-H460 > 100 µM | RXF 393 66.4 µM | OVCAR-5 > 100 µM | U-251 > 100 µM | A498 36.9 µM | SK-MEL-5 44.3 µM | IGROV-1 > 100 µM

O=C1C=C(Nc2ccccc2C(=O)CC(=O)C(=O)Nc2ccc(Cl)c(Cl)c2)c2ccccc2C1=O
inactive: A549 53.1 µM | MOLT-4 3.72 µM | OVCAR-8 26.7 µM | SN12C 35.1 µM | SF-539 51.2 µM | NCI-H226 55.5 µM | NCI-H460 36.2 µM | RXF 393 71.3 µM | OVCAR-5 > 100 µM | U-251 34.7 µM | A498 > 100 µM | SK-MEL-5 7.78 µM | IGROV-1 > 100 µM

COC(=O)C1=C(c2ccc(OC)c(OC)c2)OC(c2cc(OC)c(OC)c(OC)c2)C1 (stereo not drawn)
inactive: A549 > 100 µM | SW-620 41.6 µM | OVCAR-8 25.9 µM | SN12C 34.3 µM | SF-539 30.2 µM | NCI-H226 50.8 µM | NCI-H460 > 100 µM | RXF 393 22.1 µM | OVCAR-5 > 100 µM | U-251 13.5 µM | A498 25.6 µM | SK-MEL-5 29.3 µM | IGROV-1 24.7 µM

C1CCN(C2OC3C(COC3N3CCCCC3)OC2OC2CCO[C@@H]2N2CCCCC2)CC1 (stereo partly drawn)
inactive: HL-60 8.47 µM | A549 51.3 µM | SW-620 81.3 µM | MOLT-4 15.8 µM | OVCAR-8 17.5 µM | SN12C 43.1 µM | SF-539 16.5 µM | NCI-H226 20 µM | NCI-H460 > 100 µM | RXF 393 8.18 µM | OVCAR-5 > 100 µM | U-251 30.5 µM | A498 34.1 µM | SK-MEL-5 25.2 µM | IGROV-1 79.3 µM

CCOC(=O)C(NC(=O)c1nc[nH]c1/N=N/N(C)C)C(C)C (stereo not drawn)
inactive: HL-60 > 100 µM | A549 > 100 µM | SW-620 > 100 µM | MOLT-4 > 100 µM | OVCAR-8 > 100 µM | SN12C > 100 µM | SF-539 > 100 µM | NCI-H226 > 100 µM | NCI-H460 > 100 µM | OVCAR-5 > 100 µM | U-251 40.8 µM | A498 > 100 µM | SK-MEL-5 > 100 µM | IGROV-1 > 100 µM

O=C(O)CP(=S)(S)c1ccccc1 (stereo not drawn)
inactive: HL-60 > 100 µM | A549 > 100 µM | SW-620 > 100 µM | MOLT-4 > 100 µM | OVCAR-8 > 100 µM | SN12C > 100 µM | SF-539 > 100 µM | NCI-H226 > 100 µM | NCI-H460 > 100 µM | RXF 393 > 100 µM | U-251 > 100 µM | A498 > 100 µM | SK-MEL-5 > 100 µM

O=c1ccn(C2(CO)C=C(CO)C(O)C2O)c(=O)[nH]1 (stereo not drawn)
inactive: HL-60 > 25.7 µM | A549 > 25.7 µM | SW-620 > 25.7 µM | MOLT-4 > 25.7 µM | OVCAR-8 > 25.7 µM | SN12C > 25.7 µM | SF-539 > 25.7 µM | NCI-H226 > 25.7 µM | NCI-H460 > 25.7 µM | RXF 393 > 25.7 µM | U-251 > 25.7 µM | A498 > 25.7 µM | SK-MEL-5 > 25.7 µM | IGROV-1 > 25.7 µM

Oc1cc(-c2c[nH]c3ccccc23)nc2cc3c(cc12)OCO3
inactive: HL-60 > 100 µM | A549 > 100 µM | SW-620 > 100 µM | MOLT-4 > 100 µM | OVCAR-8 > 10 µM | SN12C > 100 µM | SF-539 > 100 µM | NCI-H226 > 100 µM | NCI-H460 > 100 µM | RXF 393 > 100 µM | U-251 > 100 µM | A498 > 100 µM | SK-MEL-5 > 100 µM | IGROV-1 83.2 µM
